Data from PMC5941067, “Novel Xanthomonas campestris Long-Chain-Specific 3-Oxoacyl-Acyl Carrier Protein Reductase Involved in Diffusible Signal Factor Synthesis” (mBio, 2018).

Key:
[1] = target: T1, X. campestris pv. campestris FabH (Xanthomonas campestris, UniProt Q8PBV1); test: coupled reaction, MALDI-TOF MS of acyl-ACP products; type: biochemical; conditions: co-substrate malonyl-ACP; with FabG1 or FabG2 and E. coli FabA
T1 construct: purification and tag of this protein not described in the main text
T1 sequence (Q8PBV1 whole entry): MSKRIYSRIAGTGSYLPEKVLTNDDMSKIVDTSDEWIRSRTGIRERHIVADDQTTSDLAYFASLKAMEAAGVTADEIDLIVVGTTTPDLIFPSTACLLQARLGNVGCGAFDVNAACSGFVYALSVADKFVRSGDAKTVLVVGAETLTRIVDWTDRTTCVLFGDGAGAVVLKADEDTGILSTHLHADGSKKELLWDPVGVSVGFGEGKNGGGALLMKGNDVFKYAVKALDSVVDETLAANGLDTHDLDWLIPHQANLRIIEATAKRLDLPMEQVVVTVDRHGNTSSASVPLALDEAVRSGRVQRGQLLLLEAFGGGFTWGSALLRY

FabG1 (XCC1018) = target: T2, FabG1 (XCC1018) (Xanthomonas campestris, UniProt Q8PBU9); test: NADPH absorbance decrease at […] nm; type: biochemical; conditions: hydride donor; 3-oxodecanoyl-ACP generated in situ by E. coli FabD and FabB from acyl-ACP and malonyl-CoA
T2 construct: gene fabG; full length, pET-28(b) construct (His tag), E. coli BL21(DE3)
T2 sequence (Q8PBU9 entry or part of it): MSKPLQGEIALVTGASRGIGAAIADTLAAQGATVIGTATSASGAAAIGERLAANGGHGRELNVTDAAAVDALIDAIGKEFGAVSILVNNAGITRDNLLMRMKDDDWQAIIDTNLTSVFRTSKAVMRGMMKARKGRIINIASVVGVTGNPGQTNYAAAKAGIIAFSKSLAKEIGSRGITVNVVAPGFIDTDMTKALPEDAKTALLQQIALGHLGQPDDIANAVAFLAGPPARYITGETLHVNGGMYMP

Structure (SMILES)	coupled reaction, MALDI-TOF MS of acyl-ACP products [1]	NADPH absorbance decrease at 340 nm (FabG1 (XCC1018))
CCCCCCCC(=O)SCCNC(=O)CCNC(=O)[C@H](O)C(C)(C)COP(=O)(O)OP(=O)(O)OC[C@H]1O[C@@H](n2cnc3c(N)ncnc32)[C@H](O)[C@@H]1OP(=O)(O)O [octanoyl-CoA]	X. campestris pv. campestris FabH, octanoyl-CoA, and malonyl-ACP replaced octanoyl-ACP	–
NC(=O)C1=CN([C@@H]2O[C@H](COP(=O)(O)OP(=O)(O)OC[C@H]3O[C@@H](n4cnc5c(N)ncnc54)[C@H](OP(=O)(O)O)[C@@H]3O)[C@@H](O)[C@H]2O)C=CC1 [NADPH]	–	The maximal rate of NADPH reduction of 3-oxodecanoyl-ACP by FabG2
